Data on 17 compounds can be found in patent EP4813463A2, “TYK2 INHIBITORS AND COMPOSITIONS AND METHODS THEREOF” (Lynk Pharmaceuticals Co. Ltd., priority 2023, dated 2024).

In assay [1] the target is T1, TYK2-JH2 domain (Homo sapiens, UniProt P29597).
T1 construct: JAK1-JH2 domain or TYK2-JH2 domain enzyme in assay buffer
Briefly: Binding activity test for JH2 domain of TYK2 (Tb-antibody/tracer FRET). The method, boiled down: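 IC50 values (nM) come from TR-FRET readings taken after a 25°C incubation followed by overnight at 4°C. Each well held JH2 domain protein, Tb-antibody, tracer and test compound titrated in 11 threefold steps, with DMSO high and low controls.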

In assay [2] the target is T2, JAK1-JH2 domain (Homo sapiens, UniProt P23458).
T2 construct: JAK1-JH2 domain or TYK2-JH2 domain enzyme in assay buffer
Briefly: Binding activity test for JH2 domain of JAK1 (Tb-antibody/tracer FRET). Here is the method:
Binding Activity test for JH2 domain of JAK1 and TYK2 […] Add 8μL/well in echo source plate, echo will add 75nL/well with 3-fold serial dilution for 11 points in assay plate. 75nL DMSO for high control and low control. […] For low control, add 5μL/well assay buffer. And then spin down at 1000rpm and centrifuge for 30 seconds. After enzyme system prepared, add 5μL of Tb-antibody solution into each well of assay plate. Spin down at 1000 rpm and centrifuge for 30sec. After Tb-antibody added, also add 5μL of tracer into the assay plate. Spin down at 1000rpm and centrifuge for 30sec. Incubate for […] at 25°C firstly and then continue to incubate the plate at 4°C overnight. Read by envision in FRET mode. The Luminescence value was recorded by a multi-label reader Envision (PerkinElmer). […] Table 2. IC50 on JH2 domain activity (nM)

Assay [3] relates to Ba/F3-FL-TYK2-P760L cells. Briefly: Anti-proliferative assay in engineered Ba/F3 cells (Cell-Titer Glo, 72 h). As to conditions: Mus musculus, concentration that causes 50% growth inhibition, read-out: Baf3-FL-T2P760L. Type of assay: cell-based. Put shortly: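 IC50 from luminescent ATP viability after 72 h compound exposure (37 °C, 5% CO2), % inhibition normalised to DMSO-treated cells minus medium blank. IL-3-free Ba/F3-FL-TYK2-P760L (Tel-JAK fusion) cells in 10% FBS RPMI-1640 received 9 three-fold doses, top 20 µM, 0.1% DMSO.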

Setting [4] is: JH2 domain enzyme; 60 min at 25°C, then 4°C overnight; read-out: TYK2 JH2 Binding IC50.
Setting [5] is: ratio of JAK1 JH2 to TYK2 JH2 binding IC50.
The mark [6] stands for this setting: JH2 domain enzyme; 60 min at 25°C, then 4°C overnight; read-out: JAK1 JH2 Binding IC50.
Where [7] appears, read: BaF3, 72 h, 72 h compound treatment.

Read-outs that look alike come from different tables or passages of the source. Where only a bound is given, the exact number is not on record here.

T2 sequence (P23458 583-855 limits assumed): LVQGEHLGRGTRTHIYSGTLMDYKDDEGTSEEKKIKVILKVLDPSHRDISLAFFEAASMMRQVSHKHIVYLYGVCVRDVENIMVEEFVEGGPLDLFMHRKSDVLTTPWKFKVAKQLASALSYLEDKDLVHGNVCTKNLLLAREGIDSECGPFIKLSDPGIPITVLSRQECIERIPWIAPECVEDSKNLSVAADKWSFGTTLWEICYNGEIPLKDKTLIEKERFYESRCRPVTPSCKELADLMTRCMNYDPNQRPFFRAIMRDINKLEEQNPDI
T1 sequence (P29597 589-875 limits assumed): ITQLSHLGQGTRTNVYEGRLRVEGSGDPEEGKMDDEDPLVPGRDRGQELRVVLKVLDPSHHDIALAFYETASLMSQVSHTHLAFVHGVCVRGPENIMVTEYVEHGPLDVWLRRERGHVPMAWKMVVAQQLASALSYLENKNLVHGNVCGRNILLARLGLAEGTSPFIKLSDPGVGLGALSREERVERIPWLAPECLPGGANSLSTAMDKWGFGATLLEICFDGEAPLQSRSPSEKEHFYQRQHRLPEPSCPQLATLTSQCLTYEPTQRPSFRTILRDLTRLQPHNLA

As for `CCOC(c1ccc2c(c(Nc3cc(NC(=O)C4CC4)ncc3C(=O)OC)nn2C)c1OC)C(F)(F)F` (single isomer, unassigned) [Example 106B, Methyl (S*)-6-(cyclopropanecarboxamido)-4-((5-(1-ethoxy-2,2,2-trifluoroethyl)-4-methoxy-1-methyl-1H-indazol-3-yl)amino)nicotinate], the IC50 was 0.21 nM in assay [1] (setting [4]), 15.8 nM in assay [2] (setting [6]) and 5.49 nM in assay [3] (setting [7]). For the same compound, in assay [1] (setting [5]), the JAK1/TYK2 selectivity came out at 75.19.

Take `CNC(=O)c1nnc(NC(=O)C2CC2)cc1Nc1cn(C)c2cccc(OC)c12` [Example 1, 6-(Cyclopropanecarboxamido)-4-((4-methoxy-1-methyl-1H-indol-3-yl)amino)-N-methylpyridazine-3-carboxamide]: the IC50 in assay [1] (setting [4]) was found to be 2.33 nM; in assay [2] (setting [6]) it was 19.5 nM; in assay [3] (setting [7]) it was 1170 nM. For the same compound, the JAK1/TYK2 selectivity in assay [1] (setting [5]) stood at 8.4.

With `[2H]C([2H])([2H])NC(=O)c1cnc(NC(=O)C2CC2)cc1Nc1cnn2ccc(C(=O)OC)c(OC)c12` [Example 6, Methyl 3-((2-(cyclopropanecarboxamido)-5-((methyl-d3)carbamoyl)pyridin-4-yl)amino)-4-methoxypyrazolo[1,5-a]pyridine-5-carboxylate], the results for the IC50 in assay [1] (setting [4]), in assay [2] (setting [6]) and in assay [3] (setting [7]) were 0.482 nM, 7.45 nM and 146 nM, respectively. For the same compound, in assay [1] (setting [5]), the JAK1/TYK2 selectivity is reported as 15.4.

With `[2H]C([2H])([2H])NC(=O)c1cnc(NC(=O)C2CC2)cc1Nc1cnn2ccc(C(F)(F)F)c(OC)c12` [Example 10, 6-(Cyclopropanecarboxamido)-4-((4-methoxy-5-(trifluoromethyl)pyrazolo[1,5-a]pyridin-3-yl)amino)-N-(methyl-d3)nicotinamide], the IC50 was 0.224 nM in assay [1] (setting [4]), 9.71 nM in assay [2] (setting [6]) and 120 nM in assay [3] (setting [7]). Also, in assay [1] (setting [5]), the JAK1/TYK2 selectivity is recorded as 43.3.

In the case of `[2H]C([2H])([2H])NC(=O)c1cnc(NC(=O)[C@@H]2C[C@@H]2F)cc1Nc1cnn2ccc(C(F)(F)F)c(OC)c12` [Example 11, 6-((1S,2S)-2-fluorocyclopropane-1-carboxamido)-4-((4-methoxy-5-(trifluoromethyl)pyrazolo[1,5-a]pyridin-3-yl)amino)-N-(methyl-d3)nicotinamide], the IC50 in assay [1] (setting [4]) came to 0.182 nM; in assay [2] (setting [6]), 17.6 nM; in assay [3] (setting [7]), 54.5 nM. In assay [1] (setting [5]), the JAK1/TYK2 selectivity is listed as 96.5.

Turning to `[2H]C([2H])([2H])NC(=O)c1cnc(NC(=O)C2CC2)cc1Nc1cnn2ccc(COC)c(OC)c12` [Example 16, 6-(Cyclopropanecarboxamido)-4-((4-methoxy-5-(methoxymethyl)pyrazolo[1,5-a]pyridin-3-yl)amino)-N-(methyl-d3)nicotinamide], the IC50 came out at 0.22 nM in assay [1] (setting [4]), 14.1 nM in assay [2] (setting [6]) and 87 nM in assay [3] (setting [7]). Also, the JAK1/TYK2 selectivity in assay [1] (setting [5]) is 64.0.

As for `[2H]C([2H])([2H])NC(=O)c1cnc(NC(=O)C2CC2)cc1Nc1cnn2ccc([C@H](OC([2H])([2H])[2H])C(F)(F)F)c(OC)c12` [Example 28, (S)-6-(cyclopropanecarboxamido)-4-((4-methoxy-5-(2,2,2-trifluoro-1-(methoxy-d3)ethyl)pyrazolo[1,5-a]pyridin-3-yl)amino)-N-(methyl-d3)nicotinamide], the IC50 turned out to be 0.073 nM in assay [1] (setting [4]), 7.48 nM in assay [2] (setting [6]) and 10.7 nM in assay [3] (setting [7]). The JAK1/TYK2 selectivity in assay [1] (setting [5]) is on record as 102.5.

As to `[2H]C([2H])([2H])NC(=O)c1cnc(NC(=O)C2CC2)cc1Nc1cnn2ccc(C(C)(C)O)c(C)c12` [Example 34, 6-(Cyclopropanecarboxamido)-4-((5-(2-hydroxypropan-2-yl)-4-methylpyrazolo[1,5-a]pyridin-3-yl)amino)-N-(methyl-d3)nicotinamide], the IC50 in assay [1] (setting [4]) was 161 nM; in assay [2] (setting [6]), above 298 nM; in assay [3] (setting [7]), above 5000 nM. In assay [1] (setting [5]), the JAK1/TYK2 selectivity is on record as above 1.85.

Consider `[2H]C([2H])([2H])NC(=O)c1cnc(NC(=O)[C@@H]2C[C@@H]2F)cc1Nc1cnn2cnc(OC)c(OC)c12` [Example 36, 4-((4,5-Dimethoxypyrazolo[1,5-c]pyrimidin-3-yl)amino)-6-((1S,2S)-2-fluorocyclopropane-1-carboxamido)-N-(methyl-d3)nicotinamide], for which the IC50 is 4.55 nM in assay [1] (setting [4]), 255 nM in assay [2] (setting [6]) and 1770 nM in assay [3] (setting [7]). In addition, the JAK1/TYK2 selectivity in assay [1] (setting [5]) is 56.0.

For the compound `[2H]C([2H])([2H])NC(=O)c1cnc(NC(=O)[C@@H]2C[C@@H]2F)cc1Nc1cnn2cnc(C(O)C(F)(F)F)c(OC)c12` (some centres unmarked) [Example 39, 6-((18,25)-2-fluorocyclopropane-1-carboxamido)-4-((4-methoxy-5-(2,2,2-trifluoro-1-hydroxyethyl)pyrazolo[1,5-c]pyrimidin-3-yl)amino)-N-(methyl-d3)nicotinamide], in assay [1] (setting [5]), the JAK1/TYK2 selectivity is given as above 532.1. The IC50 was 0.561 nM in assay [1] (read-out: TYK2 JH2 Binding IC50; JH2 domain enzyme; 60 min at 25°C, then 4°C overnight); above 298 nM in assay [2] (read-out: JAK1 JH2 Binding IC50; JH2 domain enzyme; 60 min at 25°C, then 4°C overnight); 350 nM in assay [3] (BaF3, 72 h compound treatment).

Take `[2H]C([2H])([2H])NC(=O)c1cnc(NC(=O)C2CC2)cc1Nc1cnn2ccccc12` [Example 40, 6-(Cyclopropanecarboxamido)-N-(methyl-d3)-4-(pyrazolo[1,5-a]pyridin-3-ylamino)nicotinamide]: the IC50 in assay [1] (setting [4]) is 186 nM; in assay [2] (setting [6]), above 298 nM; in assay [3] (setting [7]) it was above 5000 nM. Also, the JAK1/TYK2 selectivity in assay [1] (setting [5]) is listed as above 1.6.

In the case of `[2H]C([2H])([2H])NC(=O)c1cnc(NC(=O)C2CC2)cc1Nc1cnn2ccc(C(O)C(F)(F)F)cc12` (centres unmarked) [Example 41, 6-(Cyclopropanecarboxamido)-N-(methyl-d3)-4-((5-(2,2,2-trifluoro-1-hydroxyethyl)pyrazolo[1,5-a]pyridin-3-yl)amino)nicotinamide], the values for the IC50 in assay [1] (setting [4]), in assay [2] (setting [6]) and in assay [3] (setting [7]) were 46.8 nM, above 298 nM and above 5000 nM, respectively. Moreover, the JAK1/TYK2 selectivity in assay [1] (setting [5]) is recorded as above 6.37.

Regarding `[2H]C([2H])([2H])NC(=O)c1cnc(NC(=O)C2CC2)cc1Nc1cnn2cccc(OC)c12` [Example 44, 6-(Cyclopropanecarboxamido)-4-((4-methoxypyrazolo[1,5-a]pyridin-3-yl)amino)-N-(methyl-d3)nicotinamide], the IC50 in assay [1] (setting [4]) is 2.8 nM; in assay [2] (setting [6]), 60.2 nM; in assay [3] (setting [7]), 356 nM. Further, the JAK1/TYK2 selectivity in assay [1] (setting [5]) is 21.5.

In the case of `COC(=O)c1cnc(NC(=O)C2CC2)cc1Nc1nn(C)c2ccc(C(OC)C(F)(F)F)c(OC)c12` (centres unmarked) [Example 45, Methyl 6-(cyclopropanecarboxamido)-4-((4-methoxy-1-methyl-5-(2,2,2-trifluoro-1-methoxyethyl)-1H-indazol-3-yl)amino)nicotinate], the IC50 in assay [1] (setting [4]) stood at 0.209 nM; in assay [2] (setting [6]), 64.3 nM; in assay [3] (setting [7]), 8.61 nM. Also, the JAK1/TYK2 selectivity in assay [1] (setting [5]) is on record as 307.51.

In the case of `COC(=O)c1cnc(NC(=O)C2CC2)cc1Nc1nn(C)c2ccc([C@@H](OC)C(F)(F)F)c(OC)c12` [Example 45A, Methyl (R)-6-(cyclopropanecarboxamido)-4-((4-methoxy-1-methyl-5-(2,2,2-trifluoro-1-methoxyethyl)-1H-indazol-3-yl)amino)nicotinate], the IC50 in assay [1] (setting [4]) was 0.826 nM; in assay [2] (setting [6]), above 298 nM; in assay [3] (setting [7]), 110 nM. The JAK1/TYK2 selectivity in assay [1] (setting [5]) is reported as above 361.38.

Consider `[2H]C([2H])([2H])NC(=O)c1cnc(NC(=O)C2CC2)cc1Nc1nn(C)c2ccc(C(OC)C(F)(F)F)c(OC)c12` (centres unmarked) [Example 46, 6-(Cyclopropanecarboxamido)-4-((4-methoxy-1-methyl-5-(2,2,2-trifluoro-1-methoxyethyl)-1H-indazol-3-yl)amino)-N-(methyl-d3)nicotinamide], for which the values for the IC50 in assay [1] (setting [4]), in assay [2] (setting [6]) and in assay [3] (setting [7]) were 0.113 nM, 6.81 nM and 0.618 nM, respectively. Moreover, in assay [1] (setting [5]), the JAK1/TYK2 selectivity was found to be 60.31.

`[2H]C([2H])([2H])O[C@@H](c1ccn2ncc(Nc3cc(NC(=O)C4CC4)ncc3C(=O)OC)c2c1OC)C(F)(F)F` [Example 47, Methyl (S)-6-(cyclopropanecarboxamido)-4-((4-methoxy-5-(2,2,2-trifluoro-1-(methoxy-d3)ethyl)pyrazolo[1,5-a]pyridin-3-yl)amino)nicotinate]: the IC50 in assay [1] (setting [4]) worked out at 0.221 nM; in assay [2] (setting [6]) it was 46.5 nM; in assay [3] (setting [7]), 70.6 nM. For the same compound, the JAK1/TYK2 selectivity in assay [1] (setting [5]) is 210.20.
